Our source for the IC50 and Ki values is paper PMC11909056, “Investigation of cholinesterase and α-glucosidase enzyme activities, and molecular docking and dft studies for 1,2-disubstituted cyclopentane derivatives with phenyl and benzyl units” (Molecular Diversity, 2024).

The target of experiment [1] is T1, Butyrylcholinesterase (BChE) (Equus caballus, UniProt P81908).
T1 construct: Butyrylcholinesterase from equine serum (CAS No.: 9001–08-5); from tissue; host or cells: equine serum
Description: biochemical. As for the experimental part: (§1) The Ellman approach was employed to examine the impact of synthetic chemicals on the ability to inhibit AChE and BChE activity. AChI/BChI and DTNB were used to quantify the AChE/BChE activity. […] For different concentrations of the sample solution, 100 μL of buffer (1 M, Tris/HCl, pH 8.0) were used to dissolve 10 μL of the sample solution. […] The incubation was followed by the addition of DTNB (50 μL, 0.5 mM). Lastly, to start the reaction, 50 μL of bChI/aChI were added. […] Then, the activities of AChE/BChE were evaluated.

Experiment [2] addresses Acetylcholinesterase (AChE) (Electrophorus electricus, UniProt O42275). In words: biochemical. As for the experimental part:
as §1

In the next experiment the target is α-Glucosidase (Saccharomyces cerevisiae, UniProt P53341). In words: α-glucosidase inhibition with p-NPG substrate (Tao et al. method). The experiment is classed as biochemical. The method, then:
Samples were made by dissolving 20 mg in 20 mL (EtOH:H2O). It was initially combined in 5–200 μL of sample with 700 μL of phosphate buffer (0.15 u/mL, pH 7.4) and 20 μL of enzyme solution [31, 32]. After a pre-incubation period of 10 min at 35 °C, 50 μL of p-NPG was added as the reaction began. Additionally, following the pre-incubation, 50 μL of p-NPG in phosphate buffer (5 mM, pH = 7.4) was added, and the incubation was repeated at 35 °C. A curve was fitted to the data to determine the IC50 and Ki values. […] (pH: 7.4).

T1 sequence (P81908 whole entry): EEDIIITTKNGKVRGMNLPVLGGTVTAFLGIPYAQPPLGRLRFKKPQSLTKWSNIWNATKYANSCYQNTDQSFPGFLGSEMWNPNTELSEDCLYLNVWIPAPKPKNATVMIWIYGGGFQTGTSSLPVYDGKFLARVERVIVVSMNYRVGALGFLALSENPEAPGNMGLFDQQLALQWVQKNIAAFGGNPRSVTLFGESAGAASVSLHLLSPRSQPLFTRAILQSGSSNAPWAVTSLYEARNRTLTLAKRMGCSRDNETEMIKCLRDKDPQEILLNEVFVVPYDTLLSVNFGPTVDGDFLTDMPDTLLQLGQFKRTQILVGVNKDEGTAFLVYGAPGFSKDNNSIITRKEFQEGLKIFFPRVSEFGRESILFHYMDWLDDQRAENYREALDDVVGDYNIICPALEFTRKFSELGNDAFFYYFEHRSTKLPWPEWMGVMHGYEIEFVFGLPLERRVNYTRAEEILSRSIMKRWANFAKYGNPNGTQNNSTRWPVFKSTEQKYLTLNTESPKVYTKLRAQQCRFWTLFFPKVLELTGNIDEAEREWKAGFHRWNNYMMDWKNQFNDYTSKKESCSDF
Acetylcholinesterase (AChE), sequence (O42275 24-633): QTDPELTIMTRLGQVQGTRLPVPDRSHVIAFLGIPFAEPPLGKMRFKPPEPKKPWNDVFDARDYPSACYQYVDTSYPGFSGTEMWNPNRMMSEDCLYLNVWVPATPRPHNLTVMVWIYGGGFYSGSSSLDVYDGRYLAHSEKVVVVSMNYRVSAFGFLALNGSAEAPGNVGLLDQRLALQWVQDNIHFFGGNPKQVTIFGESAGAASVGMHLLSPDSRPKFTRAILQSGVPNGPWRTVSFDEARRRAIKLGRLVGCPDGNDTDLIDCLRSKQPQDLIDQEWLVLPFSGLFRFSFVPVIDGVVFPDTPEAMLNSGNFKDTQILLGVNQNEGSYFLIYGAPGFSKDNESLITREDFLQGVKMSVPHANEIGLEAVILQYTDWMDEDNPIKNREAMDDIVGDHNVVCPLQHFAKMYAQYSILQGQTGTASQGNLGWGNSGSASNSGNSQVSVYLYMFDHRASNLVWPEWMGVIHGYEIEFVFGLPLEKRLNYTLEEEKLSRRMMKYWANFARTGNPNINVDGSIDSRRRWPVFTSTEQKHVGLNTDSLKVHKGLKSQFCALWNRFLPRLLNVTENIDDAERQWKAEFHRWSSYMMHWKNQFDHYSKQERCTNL
α-Glucosidase, sequence (P53341 whole entry): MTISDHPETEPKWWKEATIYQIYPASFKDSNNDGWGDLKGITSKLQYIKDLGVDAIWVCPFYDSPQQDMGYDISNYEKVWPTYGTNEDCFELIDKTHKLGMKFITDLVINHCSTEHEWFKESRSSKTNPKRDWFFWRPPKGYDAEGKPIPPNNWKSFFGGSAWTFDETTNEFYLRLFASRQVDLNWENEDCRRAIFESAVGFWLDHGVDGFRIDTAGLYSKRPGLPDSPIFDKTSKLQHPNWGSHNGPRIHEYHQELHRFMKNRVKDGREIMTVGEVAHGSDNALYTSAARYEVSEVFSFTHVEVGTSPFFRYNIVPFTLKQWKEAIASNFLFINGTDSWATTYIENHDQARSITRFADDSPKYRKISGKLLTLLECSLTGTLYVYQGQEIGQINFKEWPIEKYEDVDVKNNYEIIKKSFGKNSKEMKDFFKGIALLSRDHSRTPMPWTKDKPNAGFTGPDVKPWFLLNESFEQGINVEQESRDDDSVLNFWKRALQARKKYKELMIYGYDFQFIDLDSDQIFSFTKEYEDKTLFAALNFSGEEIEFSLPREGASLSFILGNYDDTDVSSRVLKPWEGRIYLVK

Broadly, the IC50 is the point on the concentration scale where inhibition reaches its midpoint. Lower therefore signals greater potency. For orientation: Ki means the dissociation constant of the complex between target and ligand, obtained from inhibition or displacement. A lower Ki goes with tighter binding. For `COc1ccc(C(=O)C2=C(c3ccc(OC)c(OC)c3OC)CCC2)c(OC)c1OC` [Compound 4, (2,3,4-trimethoxyphenyl)(2-(2,3,4-trimethoxyphenyl)cyclopent-1-en-1-yl)methanone], the IC50 amounted to 0.414 µM in experiment [1], 0.102 µM in experiment [2] and 0.0416 µM at α-Glucosidase. Besides, the results for the Ki (in experiment [1]; in experiment [2]; on α-Glucosidase) were 0.403 ± 0.0323 µM, 0.0997 ± 0.0114 µM and 0.0489 ± 0.00733 µM, respectively.

As to `COc1ccc(C(=O)C2CCC=C2c2ccc(OC)c(OC)c2OC)c(OC)c1OC` (stereo not drawn) [Compound 5], the IC50 in experiment [1] was determined as 0.187 µM; in experiment [2] it was 0.0922 µM; at α-Glucosidase, 0.0396 µM. For the same compound, the values for the Ki (in experiment [1]; in experiment [2]; on α-Glucosidase) were 0.176 ± 0.0238 µM, 0.0879 ± 0.00727 µM and 0.0447 ± 0.00661 µM, respectively.

On to `COc1ccc(C(=O)CCCCC(=O)c2ccc(OC)c(OC)c2OC)c(OC)c1OC` [Compound 6], for which the IC50 was determined as 0.225 µM in experiment [1], 0.189 µM in experiment [2] and 0.0272 µM at α-Glucosidase. The Ki in experiment [1] stood at 0.212 ± 0.0137 µM; in experiment [2], 0.177 ± 0.0226 µM; on α-Glucosidase, 0.0291 ± 0.00425 µM.

Regarding `COc1ccc(C(=O)CCCCC(=O)c2ccc(OC)c(OC)c2OC)c(O)c1OC` [Compound 7], the results for the half-inhibitory concentration (IC50) (in experiment [1]; in experiment [2]; on α-Glucosidase) were 0.646 µM, 0.644 µM and 0.0432 µM, respectively. The figures for the Ki (in experiment [1]; in experiment [2]; on α-Glucosidase) were 0.622 ± 0.0351 µM, 0.632 ± 0.0189 µM and 0.0465 ± 0.00634 µM, respectively.

Consider `COc1ccc(C(=O)CCCCC(=O)c2ccc(OC)c(OC)c2O)c(O)c1OC` [Compound 8], for which the IC50 in experiment [1] was 0.222 µM; in experiment [2], 0.174 µM; on α-Glucosidase, 0.0364 µM. The Ki was 0.209 ± 0.0147 µM in experiment [1], 0.171 ± 0.0141 µM in experiment [2] and 0.0385 ± 0.00425 µM at α-Glucosidase.

For the compound `COc1c(Br)cc(C(=O)C(Br)CCC(Br)C(=O)c2cc(Br)c(OC)c(OC)c2O)c(O)c1OC` (stereo not drawn) [Compound 9], the IC50 was found to be 0.45 µM in experiment [1], 0.0498 µM in experiment [2] and 0.0211 µM on α-Glucosidase. Moreover, the Ki in experiment [1] was 0.428 ± 0.0274 µM; in experiment [2], 0.0455 ± 0.00735 µM; on α-Glucosidase it was 0.0255 ± 0.00446 µM.

Regarding `COc1ccc(C2=C(/C(=N/NC(C)=O)c3ccc(OC)c(OC)c3OC)CCC2)c(OC)c1OC` [Compound 10, (Z)-N'-((2,3,4-Trimethoxyphenyl)(2-(2,3,4-trimethoxyphenyl)cyclopent-1-en-1-yl)methylene)acetohydrazide], the IC50 in experiment [1] is 0.135 µM; in experiment [2] it was 0.205 µM; on α-Glucosidase it was 0.0284 µM. Further, the Ki in experiment [1] is 0.131 ± 0.0145 µM; in experiment [2] it was 0.196 ± 0.0137 µM; at α-Glucosidase it was 0.0312 ± 0.00554 µM.

Take `COc1ccc(CC2CCCC2c2ccc(OC)c(OC)c2OC)c(OC)c1OC` (stereo not drawn) [Compound 11, 1,2,3-Trimethoxy-4-(2-(2,3,4-trimethoxybenzyl)cyclopentyl)benzene]: the IC50 was determined as 0.155 µM in experiment [1], 0.17 µM in experiment [2] and 0.0334 µM against α-Glucosidase. Also, the Ki is 0.145 ± 0.0155 µM in experiment [1], 0.151 ± 0.0133 µM in experiment [2] and 0.0381 ± 0.00548 µM on α-Glucosidase.

For `COc1c(Br)c(Br)c(CC2CCCC2c2c(Br)c(Br)c(OC)c(OC)c2OC)c(OC)c1OC` (stereo not drawn) [Compound 12, 1,2-Dibromo-3-(2-(2,3-dibromo-4,5,6-trimethoxybenzyl)cyclopentyl)-4,5,6-trimethoxybenzene], the IC50 in experiment [1] came out at 0.0927 µM; in experiment [2], 0.0655 µM; on α-Glucosidase it was 0.0239 µM. Also, the Ki turned out to be 0.0843 ± 0.00992 µM in experiment [1], 0.0612 ± 0.00526 µM in experiment [2] and 0.0274 ± 0.00517 µM at α-Glucosidase.

As to `COc1c(Br)cc(C2CCCC2Cc2c(Br)c(Br)c(OC)c(OC)c2OC)c(OC)c1OC` (stereo not drawn) [Compound 13, 1,2-Dibromo-3-((2-(5-bromo-2,3,4-trimethoxyphenyl)cyclopentyl)methyl)-4,5,6-trimethoxybenzene], the IC50 in experiment [1] amounted to 0.217 µM; in experiment [2] it was 0.124 µM; on α-Glucosidase, 0.0316 µM. Further, the Ki in experiment [1] came out at 0.205 ± 0.0174 µM; in experiment [2], 0.108 ± 0.00514 µM; on α-Glucosidase it was 0.0356 ± 0.00395 µM.
